From PubChem BioAssay AID2051 (NMMLSC, 2009)
Activity calls are given as the source filed them.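 Rule for the calls: active = EC50 of 30 microM or lower and a span of response of at least a set limit; inactive = the rest.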

Molecular target: Ras-related C3 botulinum toxin substrate 1 (Homo sapiens) (UniProt P63000)
Test: activated mutant Rac1 GTP binding inhibitors, SAR follow-up, biochemical, oxadiazole analogs, multiplex bead flow cytometry (AID 2051)
Conditions: Bead-based flow cytometry, Bodipy-FL-GTP binding to GST-Rac1; for Ki: measured here: Ki calculated from EC50

## Cc1ccc(C)c(N2CCN(C(=O)CCc3nc(-c4ccccc4F)no3)CC2)c1
  EC50: 2.25 µM
  Ki: 0.2 µM

## COc1ccc(-c2ccc(CCC(=O)N3CCN(c4cc(C)ccc4C)CC3)o2)cc1
  EC50: inactive

## COc1ccc(-c2noc(CCC(=O)N3CCN(c4ccccc4F)CC3)n2)cc1
  EC50: 2.51 µM
  Ki: 0.23 µM

## COc1ccc(-c2noc(CCC(=O)N3CCN(c4cccc(F)c4)CC3)n2)cc1
  EC50: inactive

## COc1ccc(-c2noc(CCC(=O)N3CCN(c4cccc(OC)c4)CC3)n2)cc1
  EC50: inactive
  Ki: 0.89 µM

## COc1ccc(-c2noc(CC(=O)N3CCN(c4cc(C)ccc4C)CC3)n2)cc1
  EC50: inactive
  Ki: 1.32 µM

## Cc1cccc(-c2noc(CCC(=O)N3CCN(c4cc(C)ccc4C)CC3)n2)c1
  EC50: 1.92 µM
  Ki: 0.17 µM

## COc1ccc(-c2noc(CCC(=O)N3CCN(c4ccccc4)CC3)n2)cc1
  EC50: inactive
  Ki: 0.16 µM

## Cc1ccc(C)c(N2CCN(C(=O)CCc3nc(-c4cccc(Cl)c4)no3)CC2)c1
  EC50: 5.12 µM
  Ki: 0.47 µM

## COc1ccc(-c2noc(CCC(=O)N3CCN(c4cccc(Br)c4)CC3)n2)cc1
  EC50: 20.6 µM
  Ki: 1.87 µM

## COc1ccc(-c2noc(CCC(=O)N3CCN(c4ccc(Cl)cc4)CC3)n2)cc1
  EC50: inactive

## COc1ccc(-c2noc(CCC(=O)N3CCN(c4ccccc4Br)CC3)n2)cc1
  EC50: 2.24 µM
  Ki: 0.2 µM

## COc1ccc(-c2cc(CCC(=O)N3CCN(c4cc(C)ccc4C)CC3)on2)cc1
  EC50: inactive
  Ki: 0.19 µM

## COc1ccc(-c2noc(CCC(=O)N3CCN(c4cc(C)ccc4C)CC3)n2)cc1
  EC50: 5.9 µM
  Ki: 0.54 µM

## COc1ccc(-c2noc(CCCC(=O)N3CCN(c4cc(C)ccc4C)CC3)n2)cc1
  EC50: 8.22 µM
  Ki: 0.75 µM

## COc1ccc(-c2cc(CCC(=O)N3CCN(c4cc(C)ccc4C)CC3)[nH]n2)cc1
  EC50: inactive

## Cc1ccc(C)c(N2CCN(C(=O)CCc3nc(-c4ccc(Cl)cc4)no3)CC2)c1
  EC50: 2.25 µM
  Ki: 0.2 µM

## Cc1ccc(C)c(N2CCN(C(=O)CCc3nc(-c4ccc(Br)cc4)no3)CC2)c1
  EC50: 3.02 µM
  Ki: 0.27 µM

## COc1cccc(-c2noc(CCC(=O)N3CCN(c4cc(C)ccc4C)CC3)n2)c1
  EC50: 5.78 µM
  Ki: 0.53 µM

## Cc1ccc(C)c(N2CCN(C(=O)CCc3nc(-c4ccc(N(C)C)cc4)no3)CC2)c1
  EC50: 4.1 µM
  Ki: 0.37 µM

## COc1ccc(-c2noc(CCC(=O)N3CCN(c4ccccc4C(F)(F)F)CC3)n2)cc1
  EC50: 2.01 µM
  Ki: 0.18 µM

## Cc1ccc(C)c(N2CCN(C(=O)CCc3nc(-c4ccccc4C(F)(F)F)no3)CC2)c1
  EC50: 2.7 µM
  Ki: 0.25 µM

## COc1ccc(-c2ccc(CCC(=O)N3CCN(c4cc(C)ccc4C)CC3)s2)cc1
  EC50: inactive

## COc1ccc(-c2ccc(CCC(=O)N3CCN(c4cc(C)ccc4C)CC3)[nH]2)cc1
  EC50: inactive
  Ki: 0.48 µM

## Cc1ccc(C)c(N2CCN(C(=O)CCc3nc(-c4cccc(C(F)(F)F)c4)no3)CC2)c1
  EC50: 3.38 µM
  Ki: 0.31 µM

## COc1ccc(-c2cccc(CCC(=O)N3CCN(c4cc(C)ccc4C)CC3)c2)cc1
  EC50: inactive
  Ki: 0.91 µM

## COc1ccc(-c2noc(CCC(=O)N3CCN(c4ccccc4Cl)CC3)n2)cc1
  EC50: 4.94 µM
  Ki: 0.45 µM

## COc1ccccc1-c1noc(CCC(=O)N2CCN(c3cc(C)ccc3C)CC2)n1
  EC50: inactive
  Ki: 0.48 µM

## Cc1ccc(C)c(N2CCN(C(=O)CCc3nc(-c4ccccc4C)no3)CC2)c1
  EC50: 2.01 µM
  Ki: 0.18 µM

## COc1ccc(-c2noc(CCC(=O)N3CCN(c4ccc(Br)cc4)CC3)n2)cc1
  EC50: inactive
  Ki: 0.3 µM

## COc1ccc(-c2noc(CCC(=O)N3CCN(c4ccc(F)cc4)CC3)n2)cc1
  EC50: inactive
  Ki: 0.08 µM

## COc1ccc(-c2noc(CCC(=O)N3CCN(c4cccc(C(F)(F)F)c4)CC3)n2)cc1
  EC50: inactive
  Ki: 0.83 µM

## Cc1ccc(C)c(N2CCN(C(=O)CCc3nc(-c4cccc(F)c4)no3)CC2)c1
  EC50: 2.55 µM
  Ki: 0.23 µM

## Cc1ccc(C)c(N2CCN(C(=O)CCc3nc(-c4cccc(Br)c4)no3)CC2)c1
  EC50: 2.14 µM
  Ki: 0.19 µM

## Cc1ccc(C)c(N2CCN(C(=O)CCc3nc(-c4ccc(F)cc4)no3)CC2)c1
  EC50: 1.37 µM
  Ki: 0.12 µM

## COc1ccc(-c2noc(CCC(=O)N3CCN(c4ccc(C)cc4)CC3)n2)cc1
  EC50: inactive
  Ki: 0.14 µM

## Cc1ccc(C)c(N2CCN(C(=O)CCc3nc(-c4ccc(C(F)(F)F)cc4)no3)CC2)c1
  EC50: 1.95 µM
  Ki: 0.18 µM

## COc1ccc(-c2noc(CCC(=O)N3CCN(c4cccc(C)c4C)CC3)n2)cc1
  EC50: 1.54 µM
  Ki: 0.14 µM

## Cc1ccc(C)c(N2CCN(C(=O)CCc3nc(-c4ccccc4Br)no3)CC2)c1
  EC50: 2.15 µM
  Ki: 0.2 µM

## COc1ccc(-c2noc(CCC(=O)N3CCN(c4ccc(OC)cc4)CC3)n2)cc1
  EC50: inactive
  Ki: 0.06 µM

## COc1ccc(-c2noc(CCCCC(=O)N3CCN(c4cc(C)ccc4C)CC3)n2)cc1
  EC50: inactive
  Ki: 1.06 µM

## Cc1ccc(C)c(N2CCN(C(=O)CCc3nc(-c4ccccc4Cl)no3)CC2)c1
  EC50: 1.37 µM
  Ki: 0.12 µM

## COc1ccc(-c2noc(CCC(=O)N3CCC(c4cc(C)ccc4C)CC3)n2)cc1
  EC50: inactive
  Ki: 0.23 µM

## COc1ccc(-c2coc(CCC(=O)N3CCN(c4cc(C)ccc4C)CC3)n2)cc1
  EC50: 2.84 µM
  Ki: 0.26 µM

## COc1ccc(-c2noc(CCC(=O)N3CCN(c4ccccc4C)CC3)n2)cc1
  EC50: 1.48 µM
  Ki: 0.13 µM

## COc1ccc(-c2noc(CCC(=O)N3CCN(c4cccc(C)c4)CC3)n2)cc1
  EC50: inactive

## Cc1ccc(C)c(N2CCN(C(=O)CCc3nc(-c4ccccc4)no3)CC2)c1
  EC50: 2.79 µM
  Ki: 0.25 µM

## COc1ccc(-c2noc(CCC(=O)N3CCN(c4cccc(Cl)c4)CC3)n2)cc1
  EC50: 7.34 µM
  Ki: 0.67 µM

## COc1ccc(-c2noc(CCC(=O)N3CCN(c4ccc(C(F)(F)F)cc4)CC3)n2)cc1
  EC50: inactive

## Cc1ccc(-c2noc(CCC(=O)N3CCN(c4cc(C)ccc4C)CC3)n2)cc1
  EC50: 3.32 µM
  Ki: 0.3 µM

## COc1ccc(-c2noc(CCC(=O)N3CCN(c4ccccc4OC)CC3)n2)cc1
  EC50: 3.8 µM
  Ki: 0.35 µM
